From article PMC6476926, “Dichloro-Phenyl-Benzotriazoles: A New Selective Class of Human Respiratory Syncytial Virus Entry Inhibitors” (Frontiers in Chemistry, 2019)

Experiments:
HIV-1IIIB = assay: microbe, parasite or virus in culture; assay type: cell-based, Human Immunodeficiency Virus type-1 (HIV-1); conditions: Human immunodeficiency virus 1, MT4, read-out: EC50 HIV-1IIIB
[1] = Cytotoxicity, MTT method, MT-4 cells; conditions: human
RSV = assay: microbe, parasite or virus in culture; assay type: cell-based, Human Respiratory Syncytial Virus (RSV) strain A2; conditions: human respiratory syncytial virus, Vero 76, read-out: EC50 RSV
[2] = Cytotoxicity, MTT method, BHK cells; conditions: Syrian hamster (Mesocricetus auratus)
[3] = Cytotoxicity, MTT method, Vero-76 cells; conditions: African green monkey (Cercopithecus aethiops)
in vitro = conditions: cattle (Bos taurus)
YFV = assay: microbe, parasite or virus in culture; assay type: cell-based; conditions: Yellow fever virus, BHK, read-out: EC50 YFV
Sb-1, VSV, VV, HSV-1 = assay: organism not typed; assay type: cell-based; conditions: Vero 76, read-out: EC50 Sb-1, VSV, VV, HSV-1
BVDV = assay: microbe, parasite or virus in culture; assay type: cell-based; conditions: Bovine viral diarrhea virus isolates and strains, MDBK, read-out: EC50 BVDV
CV-B5 = assay: microbe, parasite or virus in culture; assay type: cell-based, Human Enterovirus B [coxsackie type B5 (CV-B5)]; conditions: Enterovirus B, CVB5, Vero 76, read-out: EC50 CV-B5
Reo-1 = assay: microbe, parasite or virus in culture; assay type: cell-based, Reovirus type-1 (Reo-1); conditions: Reovirus sp., BHK, read-out: EC50 Reo-1

| SMILES | EC50 (HIV-1IIIB) | CC50 ([1]; MT-4 cells (mock-infected)) | EC50 (RSV) | CC50 [2] | CC50 at 5 days [3] | CC50 (in vitro) | EC50 (YFV) | EC50 (Sb-1, VSV, VV, HSV-1) | EC50 (BVDV) | EC50 (CV-B5) | EC50 (Reo-1) | CC50 [1] | melting point | CC50 ([2]; BHK cells (BHK-21, mock-infected)) | CC50 ([3]; Vero-76 cells (mock-infected)) |
| --- | --- | --- | --- | --- | --- | --- | --- | --- | --- | --- | --- | --- | --- | --- | --- |
| O=C1Nc2ccc(Cl)cc2[C@@](C#CC2CC2)(C(F)(F)F)O1 [EFV, Efavirenz, reference compound] | 0.002 ± 0.0002 µM | 40 µM |  |  |  |  |  |  |  |  |  |  |  |  |  |
| Nc1ccc(-n2nnc3cc(Cl)c(Cl)cc32)cc1 [1a, 1-(4-aminophenyl)-5,6-dichlorobenzotriazole] | > 100 µM |  | 20 µM | > 100 µM | > 100 µM | > 100 µM | > 100 µM | > 100 µM | 75 µM | 85 µM | > 100 µM | > 100 µM |  |  |  |
| O=C(NCc1ccccc1)Nc1ccc(-n2nc3cc(Cl)c(Cl)cc3n2)cc1 [10j, 1-[4-(5,6-dichloro-2H-benzo[d][1,2,3]triazol-2-yl)phenyl]-3-benzylurea] | > 100 µM |  | > 100 µM | > 100 µM | > 100 µM | > 100 µM | > 100 µM | > 100 µM | > 100 µM | > 100 µM | > 100 µM | > 100 µM | > 290 °C |  |  |
| CCC(=O)Nc1ccc(-n2nc3cc(Cl)c(Cl)cc3n2)cc1 [6b, N-[4-(5,6-dichloro-2H-benzo[d][1,2,3]triazol-2-yl)phenyl]propanamide] | > 100 µM |  | > 100 µM | > 100 µM | > 100 µM | > 100 µM | > 100 µM | > 100 µM | > 100 µM | > 100 µM | > 100 µM | > 100 µM | 258 to 260 °C |  |  |
| COc1cc(C(=O)Nc2ccc(-n3nnc4cc(Cl)c(Cl)cc43)cc2)cc(OC)c1OC [7d, N-[4-(5,6-dichloro-1H-benzo[d][1,2,3]triazol-1-yl)phenyl]-3,4,5-trimethoxybenzamide] | > 77 µM |  | 5 µM | > 100 µM | 90 µM | > 100 µM | 78 µM | > 90 µM | > 100 µM | > 90 µM | > 100 µM | 77 µM | 212 to 213 °C |  |  |
| COc1ccc(NC(=O)Nc2ccc(-n3nc4cc(Cl)c(Cl)cc4n3)cc2)cc1 [10g, 1-[4-(5,6-dichloro-2H-benzo[d][1,2,3]triazol-2-yl)phenyl]-3-(4-methoxyphenyl)urea] | > 100 µM |  | > 100 µM | > 100 µM | > 100 µM | > 100 µM | > 100 µM | > 100 µM | > 100 µM | > 100 µM | > 100 µM | > 100 µM | > 290 °C |  |  |
| COc1ccc(C(=O)Nc2ccc(-n3nnc4cc(Cl)c(Cl)cc43)cc2)cc1 [7c, N-[4-(5,6-dichloro-1H-benzo[d][1,2,3]triazol-1-yl)phenyl]-4-methoxybenzamide] | > 33 µM |  | 35 µM | > 100 µM | > 100 µM | > 100 µM | > 100 µM | > 100 µM | > 100 µM | > 100 µM | > 100 µM | 33 µM | 193 to 195 °C |  |  |
| COc1ccc(C(=O)Nc2ccc(-n3nc4cc(Cl)c(Cl)cc4n3)cc2)cc1 [8c, N-[4-(5,6-dichloro-2H-benzo[d][1,2,3]triazol-2-yl)phenyl]-4-methoxybenzamide] | > 100 µM | > 100 µM | > 100 µM |  | > 100 µM | > 100 µM | > 100 µM | > 100 µM | > 100 µM | 14 µM | > 100 µM |  | 274 to 276 °C | > 100 µM |  |
| CCCC(=O)Nc1ccc(-n2nnc3cc(Cl)c(Cl)cc32)cc1 [5c, N-[4-(5,6-dichloro-1H-benzo[d][1,2,3]triazol-1-yl)phenyl]butanamide] | > 60 µM |  | 4 µM | > 100 µM | 10 µM | > 100 µM | > 100 µM | > 100 µM | > 100 µM | 9 µM | > 100 µM | 60 µM | 202 to 204 °C |  |  |
| CCNC(=O)Nc1ccc(-n2nc3cc(Cl)c(Cl)cc3n2)cc1 [10a, 1-[4-(5,6-dichloro-2H-benzo[d][1,2,3]triazol-2-yl)phenyl]-3-ethylurea] | > 100 µM |  | > 100 µM | > 100 µM | > 100 µM | > 100 µM | > 100 µM | > 100 µM | > 100 µM | > 100 µM | > 100 µM | > 100 µM | > 290 °C |  |  |
| O=C(Nc1ccc(-n2nnc3cc(Cl)c(Cl)cc32)cc1)c1ccc(C(F)(F)F)cc1 [7g, N-[4-(5,6-dichloro-1H-benzo[d][1,2,3]triazol-1-yl)phenyl]-4-(trifluoromethyl)benzamide] | > 100 µM |  | 5 µM | > 100 µM | 9 µM | > 100 µM | > 100 µM | > 90 µM | > 100 µM | > 90 µM | > 100 µM | > 100 µM | > 290 °C |  |  |
| Cc1ccc(NC(=O)Nc2ccc(-n3nc4cc(Cl)c(Cl)cc4n3)cc2)cc1 [10f, 1-[4-(5,6-dichloro-2H-benzo[d][1,2,3]triazol-2-yl)phenyl]-3-(4-methylphenyl)urea] | > 100 µM |  | > 100 µM | > 100 µM | > 100 µM | > 100 µM | > 100 µM | > 100 µM | > 100 µM | > 100 µM | > 100 µM | > 100 µM |  |  |  |
| Cc1cc(CCCOc2c(C)cc(-c3noc(C(F)(F)F)n3)cc2C)on1 [PCL, Pleconaril, reference compound] |  |  |  |  |  |  |  |  |  | 0.005 ± 0.001 µM |  |  |  |  | > 100 µM |
| C[C@@]1(O)[C@H](O)[C@@H](CO)O[C@H]1n1cnc2c(=O)[nH]c(N)nc21 [2MG, 2’-C-methyl-guanosine, reference compound] |  |  |  | > 100 µM |  | > 100 µM | 1.9 ± 0.1 µM |  | 1.1 ± 0.1 µM |  | 0.7 ± 0.2 µM |  |  |  |  |
| Nc1ccc(-n2nc3cc(Cl)c(Cl)cc3n2)cc1 [1b, 2-(4-aminophenyl)-5,6-dichlorobenzotriazole] | > 52 µM |  | 6 µM | > 100 µM | > 100 µM | ≥ 100 µM | > 100 µM | > 100 µM | 20 µM | > 100 µM | > 100 µM | 52 µM |  |  |  |
